Patent publication US20220062240A1, “METHODS OF TREATING CANCER USING A CLK INHIBITOR” (BioSplice Therapeutics, Inc., priority 2018, published 2022)
Like-named read-outs stand apart in the source and are kept apart here.

What was measured:
[1] = tested on: pancreatic cancer (8 cell lines); test: CellTiter-Glo Viability Assay, pancreatic cancer; assay type: cell-based; details: Homo sapiens, inhibition of cancer cell proliferation
[2] = tested on: ovarian cancer (4 cell lines); test: CellTiter-Glo Viability Assay, ovarian cancer; assay type: cell-based; details: Homo sapiens, inhibition of cancer cell proliferation
[3] = tested on: all 50 cell lines; test: CellTiter-Glo Viability Assay, average across all cell lines; assay type: cell-based; details: Homo sapiens; across all 50 cell lines; read-out: average EC50 for inhibition of cancer cell proliferation
In short: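 Cells were plated at 300-3,000 per well in their own media, then treated with compound in duplicate, with DMSO wells as controls. After four days at 37° C and 5% CO2, CellTiter-Glo was added, and luminescence was read. EC50s were fitted.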

[4] = tested on: haematopoietic & lymphoid tumors (13 cell lines); test: CellTiter-Glo Viability Assay, haematopoietic & lymphoid tumors; assay type: cell-based; details: Homo sapiens, inhibition of cancer cell proliferation
[5] = tested on: lung cancer (4 cell lines); test: CellTiter-Glo Viability Assay, lung cancer; assay type: cell-based; details: Homo sapiens, inhibition of cancer cell proliferation
[6] = tested on: ZR-75-1; test: CellTiter-Glo Viability Assay, breast cancer; assay type: cell-based; details: Homo sapiens, 96 h; ZR-75-1, breast cancer, four days; read-out: EC50
[7] = tested on: T47D; test: CellTiter-Glo Viability Assay, breast cancer; assay type: cell-based; details: Homo sapiens, 96 h, breast cancer, four days, read-out: EC50
[8] = tested on: BT-549; test: CellTiter-Glo Viability Assay, breast cancer; assay type: cell-based; details: Homo sapiens, 96 h; BT-549, breast cancer, four days; read-out: EC50
[9] = tested on: DU4475; test: CellTiter-Glo Viability Assay, breast cancer; assay type: cell-based; details: Homo sapiens, DU-4475, 96 h; DU4475, breast cancer, four days; read-out: EC50
[10] = tested on: HCC1599; test: CellTiter-Glo Viability Assay, breast cancer; assay type: cell-based; details: Homo sapiens, 96 h; HCC1599, breast cancer, four days; read-out: EC50
[11] = tested on: MCF7; test: CellTiter-Glo Viability Assay, breast cancer; assay type: cell-based; details: Homo sapiens, 96 h; MCF7, breast cancer, four days; read-out: EC50
[12] = tested on: MDA-MB-231-Luc; test: CellTiter-Glo Viability Assay, breast cancer; assay type: cell-based; details: Homo sapiens, 96 h; MDA-MB-231-Luc, breast cancer, four days; read-out: EC50
[13] = tested on: CAMA1; test: CellTiter-Glo Viability Assay, breast cancer; assay type: cell-based; details: Homo sapiens, CAMA-1, 96 h; CAMA1, breast cancer, four days; read-out: EC50
[14] = target: T1, CLK2 (Homo sapiens, UniProt P49760); test: CLK2 kinase activity assay (Z-lyte, Ser/Thr 6 peptide); assay type: biochemical; details: recombinant CLK2 kinase, ATP 60 μM; read-out: EC50
T1 construct: purchased Thermo Fisher (Life Technologies), Z'-LYTE Kinase Assay Kits
Experimental: All reactions were performed in duplicate.

[15] = target: CLK3 (Homo sapiens, UniProt P49761); test: CLK3 kinase activity assay (Z-lyte, Ser/Thr 18 peptide)
[16] = tested on: liver cancer (3 cell lines); test: CellTiter-Glo Viability Assay, liver cancer; assay type: cell-based; details: Homo sapiens, inhibition of cancer cell proliferation
[17] = tested on: prostate cancer (5 cell lines); test: CellTiter-Glo Viability Assay, prostate cancer; assay type: cell-based; details: Homo sapiens
[18] = tested on: colorectal cancer (6 cell lines); test: CellTiter-Glo Viability Assay, colorectal cancer; assay type: cell-based; details: Homo sapiens, inhibition of cancer cell proliferation
[19] = BXPC-3, BxPC3 cell line, read-out: Pancreatic cancer, EC50 BxPC3
[20] = CAPAN-1, Capan1 cell line, read-out: Pancreatic cancer, EC50 Capan1
[21] = Capan-2, Capan2 cell line, read-out: Pancreatic cancer, EC50 Capan2
[22] = MIA PaCa-2 cell line, read-out: Pancreatic cancer, EC50 MIA PaCa-2
[23] = PANC 05.04 cell line, read-out: Pancreatic cancer, EC50 PANC 05.04
[24] = PANC-1 cell line, read-out: Pancreatic cancer, EC50 PANC-1
[25] = UPAFII cell line, read-out: Pancreatic cancer, EC50 UPAFII
[26] = PA-1, PA1 cell line, read-out: Ovarian cancer, EC50 (μM) PA1
[27] = TOV112D, TOV-112D cell line, read-out: Ovarian cancer, EC50 (μM) TOV-112D
[28] = OV-90 cell line, read-out: Ovarian cancer, EC50 (μM) OV-90
[29] = OVCAR-3 cell line, read-out: Ovarian cancer, EC50 (μM) OVCAR-3
[30] = DND41, DND-41 cell line, read-out: Haematopoietic & Lymphoid tumors, EC50 (μM) DND-41
[31] = MV4-11, MV-4-11 cell line, read-out: Haematopoietic & Lymphoid tumors, EC50 (μM) MV-4-11
[32] = Rec1, REC-1 cell line, read-out: Haematopoietic & Lymphoid tumors, EC50 (μM) REC-1
[33] = SU-DHL-4, SUDHL4 cell line, read-out: Haematopoietic & Lymphoid tumors, EC50 (μM) SUDHL4
[34] = HL-60 cell line, read-out: Haematopoietic & Lymphoid tumors, EC50 (μM) HL-60
[35] = JM1 cell line, read-out: Haematopoietic & Lymphoid tumors, EC50 (μM) JM1
[36] = JURKAT, Clone E6-1 cell line, read-out: Haematopoietic & Lymphoid tumors, EC50 (μM) JURKAT, Clone E6-1
[37] = JeKo-1 cell line, read-out: Haematopoietic & Lymphoid tumors, EC50 (μM) JeKo-1
[38] = KASUMI-1 cell line, read-out: Haematopoietic & Lymphoid tumors, EC50 (μM) KASUMI-1
[39] = Loucy cell line, read-out: Haematopoietic & Lymphoid tumors, EC50 (μM) Loucy
[40] = MOLT-4 cell line, read-out: Haematopoietic & Lymphoid tumors, EC50 (μM) MOLT-4
[41] = TF-1 cell line, read-out: Haematopoietic & Lymphoid tumors, EC50 (μM) TF-1
[42] = TOLEDO cell line, read-out: Haematopoietic & Lymphoid tumors, EC50 (μM) TOLEDO
[43] = A-427, A427 cell line, read-out: Lung cancer, EC50 (μM) A427
[44] = HCC78, HCC-78 cell line, read-out: Lung cancer, EC50 (μM) HCC-78
[45] = NCI-H460 cell line, read-out: Lung cancer, EC50 (μM) NCI-H460
[46] = NCI-H522 cell line, read-out: Lung cancer, EC50 (μM) NCI-H522
[47] = SNU-398, SNU398 cell line, read-out: Liver cancer, EC50 SNU398
[48] = HEPG2 cell line, read-out: Liver cancer, EC50 HEPG2
[49] = PLC/PRF/5 cell line, read-out: Liver cancer, EC50 PLC/PRF/5
[50] = DU-145, read-out: Prostate cancer EC50 Du-145
[51] = PC-3, PC3 cell line, inhibition of cancer cell proliferation, read-out: Prostate cancer EC50 PC3
[52] = 22Rv1 cell line, inhibition of cancer cell proliferation, read-out: Prostate cancer EC50 22Rv1
[53] = LNCap clone FGC cell line, inhibition of cancer cell proliferation, read-out: Prostate cancer EC50 LNCap clone FGC
[54] = VCaP (Sigma) cell line, inhibition of cancer cell proliferation, read-out: Prostate cancer EC50 VCaP (Sigma)
[55] = HCT-116, HCT116 cell line, read-out: Colorectal cancer, EC50 (μM) HCT116
[56] = HT-29, HT29 cell line, read-out: Colorectal cancer, EC50 (μM) HT29
[57] = SW-620, SW620 cell line, read-out: Colorectal cancer, EC50 (μM) SW620
[58] = DLD-1 cell line, read-out: Colorectal cancer, EC50 (μM) DLD-1
[59] = SW48 cell line, read-out: Colorectal cancer, EC50 (μM) SW48
[60] = SW480 cell line, read-out: Colorectal cancer, EC50 (μM) SW480

T1 sequence (P49760 whole entry): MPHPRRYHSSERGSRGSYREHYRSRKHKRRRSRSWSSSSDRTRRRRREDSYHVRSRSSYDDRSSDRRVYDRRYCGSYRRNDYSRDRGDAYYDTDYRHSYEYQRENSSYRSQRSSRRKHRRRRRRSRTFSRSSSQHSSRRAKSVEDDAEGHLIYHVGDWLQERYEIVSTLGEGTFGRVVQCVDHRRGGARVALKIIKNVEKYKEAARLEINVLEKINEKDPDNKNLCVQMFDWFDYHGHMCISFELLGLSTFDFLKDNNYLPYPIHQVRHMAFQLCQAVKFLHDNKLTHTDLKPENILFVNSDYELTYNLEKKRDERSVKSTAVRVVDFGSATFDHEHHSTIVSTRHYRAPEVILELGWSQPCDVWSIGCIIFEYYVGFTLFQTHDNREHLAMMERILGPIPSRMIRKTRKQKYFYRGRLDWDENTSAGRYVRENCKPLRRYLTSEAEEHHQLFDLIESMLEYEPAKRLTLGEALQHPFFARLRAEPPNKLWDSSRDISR
Chain of CLK3 (P49761 whole entry): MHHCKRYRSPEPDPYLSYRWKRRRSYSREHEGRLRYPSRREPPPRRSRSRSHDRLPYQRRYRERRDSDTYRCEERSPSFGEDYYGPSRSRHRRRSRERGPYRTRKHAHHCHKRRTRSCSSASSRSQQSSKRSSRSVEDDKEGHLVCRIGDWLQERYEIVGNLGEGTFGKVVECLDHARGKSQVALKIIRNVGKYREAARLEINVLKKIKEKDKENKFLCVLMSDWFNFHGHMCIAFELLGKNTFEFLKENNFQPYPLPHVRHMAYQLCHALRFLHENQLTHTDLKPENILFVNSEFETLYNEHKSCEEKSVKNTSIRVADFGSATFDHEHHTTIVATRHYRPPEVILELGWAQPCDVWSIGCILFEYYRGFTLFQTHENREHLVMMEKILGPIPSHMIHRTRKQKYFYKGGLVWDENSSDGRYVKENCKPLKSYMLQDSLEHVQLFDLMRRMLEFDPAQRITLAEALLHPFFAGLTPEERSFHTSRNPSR

Cc1cc2ncc(-c3ccc4cnc(NC(=O)c5ccnc(N6CCN(C)CC6)c5)cc4c3)cc2[nH]1 [Compound 87]
EC50 [1, 19]: 1.25 µM | EC50 [1, 20]: 0.95 µM | EC50 [1, 21]: 1.16 µM | EC50 [1, 22]: 0.759 µM | EC50 [1, 23]: 2.88 µM | EC50 [1, 24]: 2.63 µM | EC50 [1, 25]: 1.03 µM | EC50 [2, 26]: 1.36 µM | EC50 [2, 27]: 1.43 µM | EC50 [2, 28]: 3.65 µM | EC50 [2, 29]: 0.866 µM | EC50 [3]: 1.83 µM | EC50 [4, 30]: 0.538 µM | EC50 [4, 31]: 0.542 µM | EC50 [4, 32]: 0.203 µM | EC50 [4, 33]: 0.514 µM | EC50 [4, 34]: 2.46 µM | EC50 [4, 35]: 0.21 µM | EC50 [4, 36]: 1.26 µM | EC50 [4, 37]: 0.259 µM | EC50 [4, 38]: 1.16 µM | EC50 [4, 39]: 0.916 µM | EC50 [4, 40]: 1.35 µM | EC50 [4, 41]: 3.93 µM | EC50 [4, 42]: 0.337 µM | EC50 [5, 43]: 1.12 µM | EC50 [5, 44]: 3.41 µM | EC50 [5, 45]: 1.17 µM | EC50 [5, 46]: 0.522 µM | EC50 [6]: 2.96 µM | EC50 [7]: 7.09 µM | EC50 [8]: 1.55 µM | EC50 [9]: 1.37 µM | EC50 [10]: 1.05 µM | EC50 [11]: 4.12 µM | EC50 [12]: 3.05 µM | EC50 [13]: 2.65 µM | EC50 [14]: 0.0049 µM | EC50 [15]: 0.0382 µM | EC50 [16, 47]: 0.177 µM | EC50 [16, 48]: 6.94 µM | EC50 [16, 49]: 4.29 µM | EC50 [17, 50]: 1.48 µM | EC50 [17, 51]: 1.64 µM | EC50 [17, 52]: 0.643 µM | EC50 [17, 53]: 7.84 µM | EC50 [17, 54]: 0.525 µM | EC50 [18, 55]: 0.904 µM | EC50 [18, 56]: 1.32 µM | EC50 [18, 57]: 0.798 µM | EC50 [18, 58]: 1.1 µM | EC50 [18, 59]: 0.394 µM | EC50 [18, 60]: 1.7 µM

CN1CCC(Sc2ccc3cnc(NC(=O)c4ccnc(SC5CCN(C)CC5)c4)cc3c2)CC1 [Compound 88]
EC50 [1, 19]: 1.23 µM | EC50 [1, 20]: 1.03 µM | EC50 [1, 21]: 0.937 µM | EC50 [1, 22]: 0.296 µM | EC50 [1, 23]: 2.11 µM | EC50 [1, 24]: 0.808 µM | EC50 [1, 25]: 0.547 µM | EC50 [2, 26]: 1.05 µM | EC50 [2, 27]: 0.873 µM | EC50 [2, 28]: 1.88 µM | EC50 [2, 29]: 0.569 µM | EC50 [3]: 1.15 µM | EC50 [4, 30]: 1 µM | EC50 [4, 31]: 0.204 µM | EC50 [4, 32]: 0.192 µM | EC50 [4, 33]: 0.527 µM | EC50 [4, 34]: 1.28 µM | EC50 [4, 35]: 0.158 µM | EC50 [4, 36]: 1.19 µM | EC50 [4, 37]: 0.32 µM | EC50 [4, 38]: 0.517 µM | EC50 [4, 39]: 0.614 µM | EC50 [4, 40]: 1.45 µM | EC50 [4, 41]: 2.67 µM | EC50 [4, 42]: 0.274 µM | EC50 [5, 43]: 0.841 µM | EC50 [5, 44]: 1.29 µM | EC50 [5, 45]: 0.697 µM | EC50 [5, 46]: 0.33 µM | EC50 [6]: 1.44 µM | EC50 [7]: 7.19 µM | EC50 [8]: 1.03 µM | EC50 [9]: 0.54 µM | EC50 [10]: 2.31 µM | EC50 [11]: 1.9 µM | EC50 [12]: 1.22 µM | EC50 [13]: 1.41 µM | EC50 [14]: 0.0045 µM | EC50 [15]: 0.0214 µM | EC50 [16, 47]: 0.167 µM | EC50 [16, 48]: 6.4 µM | EC50 [16, 49]: 1.56 µM | EC50 [17, 50]: 0.772 µM | EC50 [17, 51]: 0.907 µM | EC50 [17, 52]: 0.532 µM | EC50 [17, 53]: 1.19 µM | EC50 [17, 54]: 0.728 µM | EC50 [18, 55]: 0.497 µM | EC50 [18, 56]: 0.574 µM | EC50 [18, 57]: 0.465 µM | EC50 [18, 58]: 0.677 µM | EC50 [18, 59]: 0.153 µM | EC50 [18, 60]: 0.796 µM
